Measured values from patent publication US10214531B2 (Institute for Drug Discovery, LLC, priority 2013, dated 2019).
Where a name gives a salt, the structure may show the parent alone.

Target: recombinant human AMCase (Homo sapiens, UniProt Q9BZP6)
Experiment: Human AMCase Activity Assay
Type: biochemical
Conditions: recombinant hAMCase, 4-methylumbelliferyl chitobioside substrate, citrate buffer pH 5.2, 37° C., 60 minutes; read-out: Activity (IC50 value key)
Procedure: Human AMCase Activity Assay
The assay was run in the 96-well plate format, each reaction in the total volume of 100 μl. 4-Methylumbelliferyl B-D-N,N′ diacetylchitobioside hydrate was used as a substrate for the enzyme. Upon hydrolysis by AMCase, the substrate releases 4-methylumbelliferyl (4MU), when ionized in basic pH, emits fluorescence of 460 nm.
Briefly, 40 μl of a substrate was added to each well, followed by 10 μl of compound dilution and 50 μl of hAMCase recombinant enzyme solution. The reaction was carried out in citrate buffer, pH 5.2, in the dark, at 37° C. for 60 minutes with shaking.

Sequence of recombinant human AMCase (Q9BZP6 22-476): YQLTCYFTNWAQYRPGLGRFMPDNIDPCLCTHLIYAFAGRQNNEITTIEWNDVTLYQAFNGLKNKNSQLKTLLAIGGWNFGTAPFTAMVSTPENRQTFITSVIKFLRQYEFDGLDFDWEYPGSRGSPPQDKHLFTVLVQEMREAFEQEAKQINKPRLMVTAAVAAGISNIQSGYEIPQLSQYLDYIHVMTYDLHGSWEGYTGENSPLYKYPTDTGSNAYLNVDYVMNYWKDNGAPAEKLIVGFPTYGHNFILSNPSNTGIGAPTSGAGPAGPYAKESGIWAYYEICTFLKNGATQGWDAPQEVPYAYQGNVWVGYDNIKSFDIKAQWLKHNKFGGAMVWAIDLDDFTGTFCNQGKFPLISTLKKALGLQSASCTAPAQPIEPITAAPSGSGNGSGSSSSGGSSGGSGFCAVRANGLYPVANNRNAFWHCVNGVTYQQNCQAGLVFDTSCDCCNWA

IC50, > 100 µM:
CC(Oc1cccc(F)c1F)C(=O)N1CCN(c2nc(N)n[nH]2)CC1 (centres unmarked) [Example 37, 1-(4-(3-amino-1H-1,2,4-triazol-5-yl)piperazin-1-yl)-2-(2,3-difluorophenoxy)propan-1-one]
Nc1n[nH]c(N2CCC(NC(=O)Nc3cc(Cl)c(Cl)cc3Cl)CC2)n1 [Example 217, 1-(1-(3-amino-1H-1,2,4-triazol-5-yl)piperidin-4-yl)-3-(2,4,5-trichlorophenyl)urea]
CCc1ccccc1OC(C)C(=O)N1CCN(c2nc(N)n[nH]2)CC1 (centres unmarked) [Example 33, 1-(4-(3-amino-1H-1,2,4-triazol-5-yl)piperazin-1-yl)-2-(2-ethylphenoxy)propan-1-one]
Nc1n[nH]c(N2CC3CN(CCOc4ccc(Br)cc4)CC3C2)n1 (centres unmarked) [Example 29, 5-(5-(2-(4-bromophenoxy)ethyl)hexahydropyrrolo[3,4-c]pyrrol-2(1H)-yl)-1H-1,2,4-triazol-3-amine]
CN(Cc1ccc(Cl)cc1)C(=O)C1(C)CCN(c2nc(N)n[nH]2)CC1 [Example 91, 1-(3-amino-1H-1,2,4-triazol-5-yl)-N-(4-chlorobenzyl)-N,4-dimethyl piperidine-4-carboxamide]
Nc1n[nH]c(N2CCN(C(=O)COc3ccccc3)CC2)n1 [Example 30, 1-(4-(3-amino-1H-1,2,4-triazol-5-yl)piperazin-1-yl)-2-phenoxyethanone]
Nc1n[nH]c(N2CCC(C(=O)NCc3ccc(Cl)c(Cl)c3)CC2)n1 [Example 17, 1-(3-amino-1H-1,2,4-triazol-5-yl)-N-(3,4-dichlorobenzyl)piperidine-4-carboxamide]
C[C@@H](Oc1ccc(Cl)cc1)C(=O)N1CCN(c2nc(N)n[nH]2)CC1 [Example 9, (R)-1-(4-(3-amino-1H-1,2,4-triazol-5-yl)piperazin-1-yl)-2-(4-chlorophenoxy)-propan-1-one]
Nc1n[nH]c(N2CCC(CNC(=O)c3cccc(F)c3)CC2)n1 [Example 208, N-((1-(3-amino-1H-1,2,4-triazol-5-yl)piperidin-4-yl)methyl)-3-fluorobenzamide]
Nc1n[nH]c(N2CCC(CNC(=O)Nc3cccc(Cl)c3)CC2)n1 [Example 218]
Nc1n[nH]c(N2CCC(C(=O)NCC3CCC(F)(F)CC3)CC2)n1 [Example 207, 1-(3-amino-1H-1,2,4-triazol-5-yl)-N-((4,4-difluorocyclohexyl)methyl)piperidine-4-carboxamide]
Nc1n[nH]c(N2CCC(NC(=O)Nc3ccc(Cl)cc3)CC2)n1 [Example 67, 1-(1-(3-amino-1H-1,2,4-triazol-5-yl)piperidin-4-yl)-3-(4-chlorophenyl)urea]
Nc1n[nH]c(N2CCN(C(=O)COc3ccc4ccccc4c3)CC2)n1 [Example 25, 1-(4-(3-amino-1H-1,2,4-triazol-5-yl)piperazin-1-yl)-2-(naphthalen-2-yloxy) ethanone]
Cn1nc(N2CCN(CCOc3ccc(Br)cc3)CC2)nc1N [Example 27-1, 3-(4-(2-(4-bromophenoxy)ethyl)piperazin-1-yl)-1-methyl-1H-1,2,4-triazol-5-amine]
Nc1n[nH]c(N2CCC(NC(=O)C(O)c3ccc(Cl)cc3)CC2)n1 (centres unmarked) [Example 71, N-(1-(3-amino-1H-1,2,4-triazol-5-yl)piperidin-4-yl)-2-(4-chlorophenyl)-2-hydroxyacetamide]
Nc1n[nH]c(N2CCN(C(=O)[C@@H](N)Cc3ccccc3Cl)CC2)n1 [Example 75-2, (S)-2-amino-1-(4-(3-amino-1H-1,2,4-triazol-5-yl)piperazin-1-yl)-3-(2-chlorophenyl)propan-1-one dihydrochloride]
C[C@H](CN1CCN(c2nc(N)n[nH]2)CC1)Oc1ccc(Cl)cc1 [Example 241, (R)-5-(4-(2-(4-chlorophenoxy)propyl)piperazin-1-yl)-1H-1,2,4-triazol-3-amine dihydrochloride]

IC50, < 0.1 µM:
Nc1n[nH]c(N2CCC(N(CCc3ccc(Br)cc3)Cc3ccccc3)CC2)n1 [Example 146, 1-(3-amino-1H-1,2,4-triazol-5-yl)-N-benzyl-N-(4-bromophenethyl)piperidin-4-amine]
Nc1nc(N2CCC(N(CCc3ccc(Cl)cc3)Cc3cccc(C(F)(F)F)c3)CC2)n[nH]1 [Example 156, 1-(3-amino-1H-1,2,4-triazol-5-yl)-N-(4-chlorophenethyl)-N-(3-(trifluoromethyl)benzyl)piperidin-4-amine]
Nc1n[nH]c(N2CCC(N(CCc3ccc(Cl)cc3)[C@H](CO)c3ccccc3)CC2)n1 [Example 135, (S)-2-((1-(3-amino-1H-1,2,4-triazol-5-yl)piperidin-4-yl)(4-chlorophenethyl)amino)-2-phenylethan-1-ol]
Cc1cccc(Cl)c1CN(CCc1ccc(Cl)cc1)C1CCN(c2nc(N)n[nH]2)CC1 [Example 161, 1-(3-amino-1H-1,2,4-triazol-5-yI)-N-(2-chloro-6-methylbenzyl)-N-(4-chlorophenethyl)piperidin-4-amine]
Nc1n[nH]c(N2CCC(N(CCc3ccc(Cl)cc3)Cc3ccc4ccccc4c3)CC2)n1 [Example 112, 1-(3-amino-1H-1,2,4-triazol-5-yl)-N-(4-chlorophenethyl)-N-(naphthalen-2-ylmethyl) piperidin-4-amine]
Nc1n[nH]c(N2CCC(N(CCc3ccc(Cl)cc3)Cc3ccccc3F)CC2)n1 [Example 137, 1-(3-amino-1H-1,2,4-triazol-5-yl)-N-(4-chlorophenethyl)-N-(2-fluorobenzyl)piperidin-4-amine dihydrochloride]
Nc1n[nH]c(N2CCC(N(CCc3ccc(Br)cc3)Cc3cccc4ccccc34)CC2)n1 [Example 129, 1-(3-amino-1H-1,2,4-triazol-5-yl)-N-(4-bromophenethyl)-N-(naphthalen-1-ylmethyl)piperidin-4-amine]
Nc1nc(N2CCC(N(CCc3ccc(Cl)cc3)Cc3ccc(F)cc3Cl)CC2)n[nH]1 [Example 145, 1-(3-amino-1H-1,2,4-triazol-5-yl)-N-(2-chloro-4-fluorobenzyl)-N-(4-chlorophenethyl)piperidin-4-amine]
CC(Cc1ccc(Cl)cc1)N(C)C1CCN(c2nc(N)n[nH]2)CC1 (centres unmarked) [Example 200, 1-(3-amino-1H-1,2,4-triazol-5-yl)-N-(1-(4-chlorophenyl)propan-2-yl)-N-methylpiperidin-4-amine]

IC50, 1 to 10 µM:
Nc1n[nH]c(N2CCN(CCCc3ccc(Br)cc3)C(CCCO)C2)n1 (centres unmarked) [Example 225, 3-(4-(3-amino-1H-1,2,4-triazol-5-yl)-1-(3-(4-bromophenyl)propyl)piperazin-2-yl)propan-1-ol]
C[C@H](Cc1ccc(Cl)cc1)N(C)C1CCN(c2nc(N)n[nH]2)CC1 [Example 139, (R)-1-(3-amino-1H-1,2,4-triazol-5-yl)-N-(1-(4-chlorophenyl)propan-2-yl)-N-methylpiperidin-4-amine dihydrochloride]

IC50, 0.1 to 1 µM:
CN(CCc1cccc(C(F)(F)F)c1)C1CCN(c2nc(N)n[nH]2)CC1 [Example 180, 1-(3-amino-1H-1,2,4-triazol-5-yl)-N-methyl-N-(3-(trifluoromethyl)phenethyl)piperidin-4-amine]
CN(C1CCN(c2nc(N)n[nH]2)CC1)C(CO)Cc1ccc(Cl)cc1 (centres unmarked) [Example 130, 2-((1-(3-amino-1H-1,2,4-triazol-5-yl)piperidin-4-yl)(methyl)amino)-3-(4-chlorophenyl)propan-1-ol dihydrochloride]
CC1CN(c2nc(N)n[nH]2)CCC1N(C)CCc1ccc(Br)cc1 (centres unmarked) [Example 230, 1-(3-amino-1H-1,2,4-triazol-5-yl)-N-(4-bromophenethyl)-N,3-dimethylpiperidin-4-amine dihydrochloride]

IC50, 10 to 100 µM:
Nc1n[nH]c(N2CCN(C(=O)[C@@H](O)Cc3ccc(Cl)cc3)CC2)n1 [Example 221, (S)-1-(4-(3-amino-1H-1,2,4-triazol-5-yl)piperazin-1-yl)-3-(4-chlorophenyl)-2-hydroxypropan-1-one]
Nc1n[nH]c(N2CCC(N(CCc3ccc(Cl)cc3)CC(F)(F)F)CC2)n1 [Example 186, 1-(3-amino-1H-1,2,4-triazol-5-yl)-N-(4-chlorophenethyl)-N-(2,2,2-trifluoroethyl)piperidin-4-amine hydrochloride]
CN(CCc1ccccn1)C1CCN(c2nc(N)n[nH]2)CC1 [Example 157, 1-(3-amino-1H-1,2,4-triazol-5-yl)-N-methyl-N-(2-(pyridin-2-yl)ethyl)piperidin-4-amine trihydrochloride]
CC(C)c1ccccc1OCCN1CCN(c2nc(N)n[nH]2)CC1 [Example 84, 5-(4-(2-(2-isopropylphenoxy)ethyl)piperazin-1-yl)-1H-1,2,4-triazol-3-amine]
CCC(CN1CCN(c2nc(N)n[nH]2)CC1)Oc1ccc(Cl)cc1 (centres unmarked) [Example 63, 5-(4-(2-(4-chlorophenoxy)butyl)piperazin-1-yl)-1H-1,2,4-triazol-3-amine]
Nc1n[nH]c(N2CCC(NS(=O)(=O)Cc3ccc(Cl)c(Cl)c3)CC2)n1 [Example 15, N-(1-(3-amino-1H-1,2,4-triazol-5-yl)piperidin-4-yl)-1-(3,4-dichlorophenyl)methanesulfonamide]
COc1ccc(OCCN2CCN(c3nc(N)n[nH]3)CC2)cc1 [Example 81, 5-(4-(2-(4-methoxyphenoxy)ethyl)piperazin-1-yl)-1H-1,2,4-triazol-3-amine]
